From US6864217B2, “Herbicidal compositions with substituted phenylsulfonylureas for controlling weeds in rice” (Hoechst Schering AgrEvo GmbH, priority 1998, dated 2005)
Where a name gives a salt, the structure may show the parent alone. Read-outs that look alike come from different tables or passages of the source.

Tests used:
Cucumis dipsaceus = assay: Table 1: weed control by A1*), safener C3-1) and combination; format: in vivo
Method: (§4) The examples mentioned below were carried out in the greenhouse, and in some instances, in field trials.

[1] = test system: Oryza sativa (paddy rice); assay: Table 1: damage to paddy rice; format: in vivo
Method: as §4

Eleusine indica = assay: Table 2 field trial, treatment at the 2-3 leaf stage weed grasses: weed control; format: in vivo; settings: 28 days after application
Method: as §4

Oryza sativa [2] = assay: Table 6 field trial, treatment at the 1-2 leaf stage: rice damage; format: in vivo; settings: 2 g of ai/ha; field trial, 28 days after application
Method: as §4

Echinochloa crusgalli [3] = assay: Table 7 field trial, treatment at the 1-2 leaf stage: weed control; format: in vivo; settings: 2 g of ai/ha, 28 days after application
Method: as §4

Marsilea crenata = assay: as above; format: in vivo; settings: 2 g of ai/ha, 28 days after application
Method: as §4

Oryza sativa [4] = assay: Table 7 field trial, treatment at the 1-2 leaf stage: rice damage; format: in vivo; settings: 2 g of ai/ha, 28 days after application
Method: as §4

Echinochloa crusgalli [5] = assay: Table 8 greenhouse trial, treatment at the 1-2 leaf stage: weed control; format: in vivo; settings: 22 days after application
Text: Seeds or rhizome pieces of mono- and dicotyledonous weed plants are placed into sandy loam soil in plastic pots, covered with soil and grown in a greenhouse under good growth conditions (temperature, atmospheric humidity, water supply). Weeds which are encountered in the cultivation of rice are cultivated in pots in which the water level is up to 2 cm over the soil surface. […] The active compound combinations according to the invention, formulated as wettable powders or emulsion concentrates, and, in parallel experiments, the correspondingly formulated individual active compounds are sprayed onto the green parts of the plants at different dosages using an amount of water of 300 to 600 l/ha (converted), and, after about 3 to 4 weeks of the test plants in the greenhouse under optimum growth conditions (temperature, atmospheric humidity, water supply), the effect of the preparations is evaluated visually in comparison to untreated controls. In the case of rice or weeds which are encountered in the cultivation of rice, the active compounds are also added directly to the water for irrigation (application analogous to the so-called granules application) or sprayed onto plants and added to the water for irrigation. The experiments were designed with several, up to five, repetitions. The herbicidal compositions according to the invention also have good herbicidal post-emergence activity against a broad spectrum of economically important weed grasses and broad-leaved weeds.

Echinochloa crusgalli [6] = assay: Table 9 greenhouse trial, treatment at the 1-2 leaf stage: weed control; format: in vivo; settings: 22 days after application
Method: (§1) Seeds or rhizome pieces of mono- and dicotyledonous weed plants are placed into sandy loam soil in plastic pots, covered with soil and grown in a greenhouse under good growth conditions (temperature, atmospheric humidity, water supply). Weeds which are encountered in the cultivation of rice are cultivated in pots in which the water level is up to 2 cm over the soil surface. Three weeks after sowing, the test plants are treated at the three-leaf stage. The active compound combinations according to the invention, formulated as wettable powders or emulsion concentrates, and, in parallel experiments, the correspondingly formulated individual active compounds are sprayed onto the green parts of the plants at different dosages using an amount of water of 300 to 600 l/ha (converted), and, after about 3 to 4 weeks of the test plants in the greenhouse under optimum growth conditions (temperature, atmospheric humidity, water supply), the effect of the preparations is evaluated visually in comparison to untreated controls. In the case of rice or weeds which are encountered in the cultivation of rice, the active compounds are also added directly to the water for irrigation (application analogous to the so-called granules application) or sprayed onto plants and added to the water for irrigation. The experiments were designed with several, up to five, repetitions. The herbicidal compositions according to the invention also have good herbicidal post-emergence activity against a broad spectrum of economically important weed grasses and broad-leaved weeds.
(§2) Greenhouse trial: Treatment at the 1-2 leaf stage, evaluation 22 days after the application.

Oryza sativa [7] = assay: Table 9 greenhouse trial, treatment at the 1-2 leaf stage: rice damage; format: in vivo; settings: 22 days after application
Method: as §1, §2

Echinochloa crusgalli [8] = assay: Table 11 greenhouse trial, treatment at the 1-2 leaf stage: weed control; format: in vivo; settings: 20 days after application
Method: as §1
(§3) Greenhouse trial: Treatment at the 1-2 leaf stage, evaluation 20 days after the application.

Oryza sativa [9] = settings: in vivo
Method: as §1, with “The herbicidal compositions according to the invention also have good herbicidal post-emergence activity against a broad spectrum of economically important weed grasses and broad-leaved weeds.” left out

Cyperus serotinus [10] = assay: Table 12 greenhouse trial, treatment at the 1-2 leaf stage: weed control; format: in vivo; settings: 20 days after application
Method: as §1, §3

Oryza sativa [11] = assay: Table 14 greenhouse trial, treatment at the 3-4 leaf stage: rice damage; format: in vivo; settings: 21 days after application
Method: as §1
Greenhouse trial: Treatment at the 3-4 leaf stage, evaluation 21 days after the application.

Scirpus maritimus = assay: Table 15 greenhouse trial, treatment at the 2-3 leaf stage: weed control; format: in vivo; settings: 20 days after application
Method: as §1

Oryza sativa [12] = assay: Table 15 greenhouse trial, treatment at the 2-3 leaf stage: rice damage; format: in vivo; settings: 20 days after application
Method: as §1

Cyperus serotinus [13] = assay: Table 16 greenhouse trial, treatment at the 2-3 leaf stage: weed control; format: in vivo; settings: 20 days after application
Method: as §1
Greenhouse trail: Treatment at the 2-3 leaf stage, evaluation 20 days after the application.

Echinochloa crusgalli [14] = assay: Table 17 field trial, treatment at the 2 leaf stage: weed control; format: in vivo; settings: 14 days after application
Text: Field trial: Treatment at the 2 leaf stage, evaluation 14 days after the application.

Oryza sativa [15] = assay: Table 18 field trial, treatment at the 1-2 leaf stage: rice damage; format: in vivo; settings: 14 days after application
Text: Field trial: Treatment at the 1-2 leaf stage, evaluation 14 days after the application.

Sagittaria pygmaea = assay: Table 22 field trial, treatment: 1-2 leaf stage: weed control; format: in vivo; settings: 28 days after application
Text: Field trial: Treatment: 1-2 leaf stage, evaluation 28 days after the application.

Oryza sativa [16] = assay: Table 2 field trial, treatment at the 1-2 leaf stage rice: rice damage; settings: 28 days after application
Method: as §4

Oryza sativa [17] = assay: Table 3 field trial, treatment at the 4-5 leaf stage (seed rice): rice damage; settings: 28 days after application
Method: as §4

COC(=O)c1ccc(I)cc1S(=O)(=O)NC(=O)Nc1nc(C)nc(OC)n1 [A1*), Sodium salt of methyl 4-iodo-2-[3-(4-methoxy-6-methyl-1,3,5-triazin-2-yl)ureidosulfonyl]benzoate] was tested, and the CUMDI % control (Cucumis dipsaceus; 1.25 g of ai/ha) was 60%, the CUMDI % control (Cucumis dipsaceus; 2.5 g of ai/ha) was 80% and the ORYSW % damage ([1]; 1.25 g of ai/ha) was 15%. For the same compound, the ORYSW % damage ([1]; 2.5 g of ai/ha) was 15%, the ELEIN % control (Eleusine indica; 1.25 g of ai/ha) was 0% and the ELEIN % control (Eleusine indica; 2.5 g of ai/ha) was 0%. For the same compound, the ELEIN % control (Eleusine indica; 5 g of ai/ha) was 0%, the ORYSW % damage (Oryza sativa [2]) was 0% and the ECHCG % control (Echinochloa crusgalli [3]) was 10%. For the same compound, the MASCR % control (Marsilea crenata) was 33%, the ORYSW % damage (Oryza sativa [4]) was 0% and the ECHCG % control (Echinochloa crusgalli [5]; 1.5 g of ai/ha) was 40%. For the same compound, the ECHCG % control (Echinochloa crusgalli [5]; 3 g of ai/ha) was 60%, the ECHCG % control (Echinochloa crusgalli [6]; 1.5 g of ai/ha) was 40% and the ECHCG % control (Echinochloa crusgalli [6]; 3 g of ai/ha) was 60%. It also gave an ORYSW % damage (Oryza sativa [7]; 1.5 g of ai/ha) of 10%, an ORYSW % damage (Oryza sativa [7]; 3 g of ai/ha) of 10% and an ECHCG % control (Echinochloa crusgalli [8]; 1.5 g of ai/ha) of 40%. The ECHCG % control (Echinochloa crusgalli [8]; 3 g of ai/ha) was 60%, the ORYSW % damage (Oryza sativa [9]) was 10% and the CYPSE % control (Cyperus serotinus [10]; 1.5 g of ai/ha) was 10%. It also gave a CYPSE % control (Cyperus serotinus [10]; 3 g of ai/ha) of 30%, an ORYSW % damage (Oryza sativa [11]; 1.5 g of ai/ha) of 10% and an ORYSW % damage (Oryza sativa [11]; 3 g of ai/ha) of 10%. The SCIMA % control (Scirpus maritimus; 1.25 g of ai/ha) was 35%, the SCIMA % control (Scirpus maritimus; 2.5 g of ai/ha) was 40% and the SCIMA % control (Scirpus maritimus; 5 g of ai/ha) was 45%. The ORYSW % damage (Oryza sativa [12]; 1.25 g of ai/ha) was 5%, the ORYSW % damage (Oryza sativa [12]; 2.5 g of ai/ha) was 10% and the ORYSW % damage (Oryza sativa [12]; 5 g of ai/ha) was 10%. For the same compound, the CYPSE % control (Cyperus serotinus [13]; 1.25 g of ai/ha) was 10%, the CYPSE % control (Cyperus serotinus [13]; 2.5 g of ai/ha) was 30% and the CYPSE % control (Cyperus serotinus [13]; 5 g of ai/ha) was 50%. The ECHCG % control (Echinochloa crusgalli [14]; 1 g of ai/ha) was 5%, the ECHCG % control (Echinochloa crusgalli [14]; 2 g of ai/ha) was 25% and the ECHCG % control (Echinochloa crusgalli [14]; 4 g of ai/ha) was 45%. For the same compound, the ORYSW % damage (Oryza sativa [15]; 1 g of ai/ha) was 7%, the ORYSW % damage (Oryza sativa [15]; 2 g of ai/ha) was 12% and the SAGPY % control (Sagittaria pygmaea; 2.5 g of ai/ha) was 20%. For the same compound, the SAGPY % control (Sagittaria pygmaea; 5 g of ai/ha) was 40%, the ORYSW % damage (Oryza sativa [16]; 1.25 g of ai/ha) was 10% and the ORYSW % damage (Oryza sativa [16]; 2.5 g of ai/ha) was 25%. For the same compound, the ORYSW % damage (Oryza sativa [16]; 5 g of ai/ha) was 25%, the ORYSW % damage (Oryza sativa [17]; 0.75 g of ai/ha) was 0% and the ORYSW % damage (Oryza sativa [17]; 1.5 g of ai/ha) was 0%. The ORYSW % damage (Oryza sativa [17]; 2.5 g of ai/ha) was 0%.
